Test results from publication PMC6530907 (Biochemistry, 2019).
In brackets after ≈: the same amount, converted by molar mass.

Legend:
[1] = system: Msm ΔEM-pMbtAtb; assay: microbe, parasite or virus in culture; format: cell-based, Mycobacterium smegmatis; conditions: for MIC potency compared to 1 (decrease): Fe-limiting media
[2] = target: T1, MbtAtb (H10MbtA^opt) (Mycobacterium tuberculosis, UniProt P71716); format: biochemical
[3] = system: Mtb; conditions: cited from earlier work
[4] = target: MbtAtb; conditions: cited from earlier work; for Ki: read-out: Kiapp
[5] = target: T1, MbtAtb (H10MbtA^opt); format: biochemical; conditions: read-out: IC50 (H10MbtA^opt-dependent signal, salicyl-AMS fragments)
[6] = target: H10MbtA^opt (Mycobacterium tuberculosis, UniProt P71716); format: biochemical
Sequence of H10MbtA^opt (P71716 whole entry, looked up): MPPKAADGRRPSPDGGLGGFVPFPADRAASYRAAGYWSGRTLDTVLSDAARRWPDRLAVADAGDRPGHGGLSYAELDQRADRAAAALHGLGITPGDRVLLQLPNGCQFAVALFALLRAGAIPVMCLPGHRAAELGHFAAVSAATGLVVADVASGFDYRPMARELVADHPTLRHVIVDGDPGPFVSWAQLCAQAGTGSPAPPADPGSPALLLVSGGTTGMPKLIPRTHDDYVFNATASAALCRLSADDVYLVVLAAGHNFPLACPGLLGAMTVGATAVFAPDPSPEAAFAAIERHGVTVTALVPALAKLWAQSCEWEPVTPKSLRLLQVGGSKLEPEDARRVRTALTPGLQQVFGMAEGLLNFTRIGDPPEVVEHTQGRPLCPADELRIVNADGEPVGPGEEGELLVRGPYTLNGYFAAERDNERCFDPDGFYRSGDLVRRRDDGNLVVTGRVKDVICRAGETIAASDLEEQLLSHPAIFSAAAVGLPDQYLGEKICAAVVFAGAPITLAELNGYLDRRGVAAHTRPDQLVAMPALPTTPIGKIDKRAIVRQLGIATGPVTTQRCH

[7] = system: Msm WT; assay: Growth inhibition assay; format: cell-based, Mycobacterium smegmatis; conditions: GASTD+Fe medium
[8] = system: Msm ΔE; assay: microbe, parasite or virus in culture; format: cell-based, Mycobacterium smegmatis; conditions: GASTD medium (Fe-limiting)
[9] = system: PPT-PNP coupling system; format: biochemical
[10] = system: mammalian cells; conditions: cited from earlier work
[11] = system: Msm ΔM; format: cell-based, Mycobacterium smegmatis; conditions: GASTD+Fe medium
[12] = system: Mtb; conditions: monotherapy at 5.6 or 16.7 mg/kg; cited from earlier work
[13] = mouse; cited from earlier work
[14] = target: T1, MbtAtb (H10MbtA^opt); format: biochemical; conditions: Kiapp increased linearly with [S]

T1 sequence (P71716 whole entry, looked up): as above

CNc1ncnc2c1ncn2[C@@H]1O[C@H](COS(=O)(=O)NC(=O)c2ccccc2O)[C@@H](O)[C@H]1O [5a, salicyl-6-N-Me-AMS]
MIC potency compared to 1 (decrease) [1]: no statistically significant difference
Kiapp higher than that of salicyl-AMS (1) [2]: ≈ 5.5 fold
decrease in tR compared with salicyl-AMS (1) [2]: ≈ 0.5 fold
increase in koff compared with salicyl-AMS (1) [2]: ≈ 2 fold
konapp lower than that of salicyl-AMS (1) [2]: ≈ 2.5 fold

Nc1nc(Nc2ccccc2)nc2c1ncn2C1OC(COS(=O)(=O)NC(=O)c2ccccc2O)C(O)C1O (stereo not shown) [3b, salicyl-2-NHPh-AMS]
MIC potency compared to 1 (decrease) [1]: no statistically significant difference

salicyl-AMSNMe [4b]
MIC potency compared to 1 (decrease) [1]: indistinguishable
improvement in Kiapp of 4b versus 4a [2]: 0.5 fold

Nc1ncnc2c1ncn2[C@@H]1O[C@H](CNS(=O)(=O)NC(=O)c2ccccc2O)[C@@H](O)[C@H]1O [4a, salicyl-AMSN]
MIC potency compared to 1 (decrease) [1]: no statistically significant difference

O=C(NS(=O)(=O)OCC1OC(n2cnc3c(=O)[nH]cnc32)C(O)C1O)c1ccccc1O (stereo not shown) [compound 11, salicyl-IMS]
Mtb MIC [3]: > 100 µM
Ki [4]: 0.8 µM

O=C(NS(=O)(=O)O)c1ccccc1O [compound 8, salicyl-sulfamate]
IC50 [5]: ~1000 µM

Nc1ncnc2c1ncn2[C@@H]1O[C@H](COP(=O)(O)OP(=O)(O)OP(=O)(O)O)[C@@H](O)[C@H]1O [ATP]
KmATP [6]: 13.0 ± 1.3 µM
kcatsal (ATP as the variable substrate) [6]: 0.0193 ± 0.00067 s⁻¹

Nc1nc(-c2ccccc2)nc2c1ncn2C1OC(COS(=O)(=O)NC(=O)c2ccccc2O)C(O)C1O (stereo not shown) [3a, salicyl-2-Ph-AMS]
MIC potency compared to 1 (decrease) [1]: no statistically significant difference

Nc1ncnc2c1ncn2[C@H]1C[C@H](O)[C@@H](COS(=O)(=O)NC(=O)c2ccccc2O)O1 [compound 2, salicyl-2´-dAMS]
MIC potency compared to 1 (decrease) [1]: 6 fold
worsening of the kinetic parameters relative to salicyl-AMS (1) [2]: ≤ 2 fold
decrease in Kiapp relative to salicyl-AMS (1) ([4]; ATP-PPi assay): 0.5 fold

Nc1ncnc2c1ncn2[C@@H]1O[C@H](COS(=O)(=O)NC(=O)c2ccccc2O)[C@@H](O)[C@H]1O [compound 1, 5´-O-[N-salicylsulfamoyl]adenosine]
MIC ([1]; GASTD medium (Fe-limiting), listed as salicyl-AMS): 0.5 to 1.0 µg/mL
MIC ([1]; GASTD+Fe medium (Fe-rich)): > 1,000 µg/ml
MIC ([1]; Mycolicibacterium smegmatis, GASTD medium (Fe-limiting)): 0.5 to 1 µg/mL (≈ 1.07 to 2.14 µM)
MIC ([1]; Mycolicibacterium smegmatis, GASTD+Fe medium (Fe-rich)): > 1000 µg/mL
mechanism of inhibition (kobs vs inhibitor concentration) ([2]; linear kobs vs [I]): static, slow-onset mechanism of inhibition
MIC [7]: >1000 µg/mL
MIC [8]: 0.5 to 1 µg/mL
MIC ([8]; Mycolicibacterium smegmatis): 0.5 to 1 µg/mL (≈ 1.07 to 2.14 µM)
MIC ([3]; Fe-limiting medium, comparable inoculum): 0.1 to 0.5 µg/mL
effect on the PPT-PNP coupling system [9]: did not affect
cytotoxicity against mammalian cells [10]: not cytotoxic
MIC [11]: >1000 µg/mL
Mtb growth in the mouse lung [12]: significant reduction of Mtb growth in the mouse lung
doses with in vivo toxicity [13]: ≥ 16.7 mg/kg
inhibition mechanism with respect to both MbtAtb substrates [14]: competitive inhibition mechanism

COc1ncnc2c1ncn2[C@@H]1O[C@H](CNS(=O)(=O)NC(=O)c2ccccc2O)[C@@H](O)[C@H]1O [compound 6, salicyl-6-MeO-AMSN]
MIC potency compared to 1 (decrease) [1]: 6 fold
Kiapp higher than that of salicyl-AMS (1) [2]: 10 fold
decrease in tR compared with salicyl-AMS (1) [2]: ≈ 0.5 fold
increase in koff compared with salicyl-AMS (1) [2]: ≈ 2 fold
konapp lower than that of salicyl-AMS (1) [2]: 6 fold

O=C(NS(=O)(=O)OC[C@H]1O[C@@H](n2cnc3c(NC4CC4)ncnc32)[C@H](O)[C@@H]1O)c1ccccc1O [5b, salicyl-6-N-c-Pr-AMS]
MIC potency compared to 1 (decrease) [1]: 6 fold
Kiapp higher than that of salicyl-AMS (1) [2]: ≈ 5.5 fold
decrease in tR compared with salicyl-AMS (1) [2]: ≈ 0.5 fold
increase in koff compared with salicyl-AMS (1) [2]: ≈ 2 fold
konapp lower than that of salicyl-AMS (1) [2]: ≈ 2.5 fold

O=C(O)c1ccccc1O [salicylic acid]
Kmsal [6]: 0.31 ± 0.003 µM

CN(C)c1ncnc2c1ncn2C1OC(COS(=O)(=O)NC(=O)c2ccccc2O)C(O)C1O (stereo not shown) [compound 12, salicyl-6-N,N-diMe-AMS]
Mtb MIC [3]: 50 µM
Ki [4]: 0.38 µM
